Converted amounts (≈) assume the structure as drawn.

Holding throughout (test): Cytotoxicity assay, MTT colorimetric method
Holding throughout (format): cell-based
On the technique in general: Tetrazolium dyes change colour on reduction, which living cells bring about.

One experiment has as its system MCF-7. Conditions: MCF-7 human breast cancer cell line, 72 hrs treatment, cell viability by MTT; for IC50: MCF7. As to the method:
(§1) Human liver (HepG2 and Hep3B), breast (MCF-7 and MDA-MB-231), and lung (A549) cancer cell lines were propagated in RPMI-1640 medium supplement with 10% (v/v) FBS, 100 U/mL penicillin and 100 µg/mL streptomycin at 37°C in a humidified atmosphere of 5% CO2 and 95% air. The culturing medium is changed every three days. Upon confluency, cells were subcultured to confluency, and used for experiments. The experimental period is determined according to the aim of experiment.
(§2) Cytotoxicity is measured by the MTT colorimetric method. Cells were seeded at densities of 5,000 - 10,000 cells/well in 96-well tissue culture plates. On day two, cells are treated with test compounds for another 72 hrs. After drug treatment, attached cells were incubated with MTT (0.5 mg/mL) for 1 hr and subsequently solubilized in DMSO. The absorbency at 550 nm is then measured using a microplate reader. The IC50 is the concentration of agent that reduces the cell viability by 50% under the experimental conditions, and the cytotoxic compound, Doxorubicin, is used as a positive control.

The next experiment relates to Hep3B. Particulars: Hep3B human liver cancer cell line; 72 hrs treatment; cell viability by MTT. As to the method: as §1, §2
In another experiment the test system is HepG2. Particulars: HepG2 human liver cancer cell line; 72 hrs treatment; cell viability by MTT. As to the method:
as §1, §2

In another experiment the test system is MDA-MB-231. Particulars: MDA-MB-231 human breast cancer cell line; 72 hrs treatment; cell viability by MTT. As to the method:
as §1, §2

The subject of the next experiment is A549. Conditions: A549 human lung cancer cell line; 72 hrs treatment; cell viability by MTT. As to the method:
as §1, §2

Usually IC50 stands for the concentration that gives 50% inhibition. Lower therefore signals inhibition by little substance. Take `O=C1C=CC(O)(c2cc(=O)c3ccccc3o2)C=C1` [compound 8a, 2-(1-hydroxy-4-oxocyclohexa-2,5-dienyl)-4H-chromen-4-one]: the IC50 with MCF-7 amounted to 0.44 µg/mL (≈ 1.73 µM); with Hep3B, 0.32 µg/mL (≈ 1.26 µM); in the experiment on HepG2 it was 1.71 µg/mL (≈ 6.73 µM); in the experiment with MDA-MB-231, 0.18 µg/mL (≈ 0.708 µM); with A549, 1.33 µg/mL (≈ 5.23 µM).
Regarding `COc1cc(O)c2c(=O)cc(C3(O)C=CC(=O)C=C3)oc2c1` [compound 18a, 5-hydroxy-2-(1-hydroxy-4-oxocyclohexa-2,5-dienyl)-7-methoxy-4H-chromen-4-one], the IC50 in the experiment with MCF-7 turned out to be 0.51 µg/mL (≈ 1.7 µM); in the experiment with Hep3B, 0.2 µg/mL (≈ 0.666 µM); in the experiment with HepG2, 0.17 µg/mL (≈ 0.566 µM); in the experiment with MDA-MB-231 it was 0.13 µg/mL (≈ 0.433 µM); with A549, 0.93 µg/mL (≈ 3.1 µM).
With `COc1cccc2c1C(=O)c1c(O)c3c(c(O)c1C2=O)C[C@@](O)(C(=O)CO)C[C@@H]3O[C@H]1C[C@H](N)[C@H](O)[C@H](C)O1` [Doxorubicin, reference compound], the concentration for half-maximal inhibition (IC50) in the experiment on MCF-7 was 0.43 µg/mL (≈ 0.791 µM); in the experiment on Hep3B, 0.36 µg/mL (≈ 0.662 µM); in the experiment with HepG2, 0.29 µg/mL (≈ 0.534 µM); in the experiment with MDA-MB-231, 0.08 µg/mL (≈ 0.147 µM); in the experiment with A549 it was 0.21 µg/mL (≈ 0.386 µM).
In the same order, the values of `COC1(c2cc(=O)c3ccccc3o2)C=CC(=O)C=C1` [compound 8b, 1'-methoxyprotoflavonoen] are 2.14 µg/mL (≈ 7.98 µM), 1.45 µg/mL (≈ 5.41 µM), 10.9 µg/mL (≈ 40.8 µM), 1.47 µg/mL (≈ 5.48 µM) and > 20 µg/mL.
Regarding `O=C1C=CC(O)(c2cc(=O)c3c(ccc4ccccc43)o2)C=C1` [compound 15a, 3-(1-hydroxy-4-oxocyclohexa-2,5-dienyl)-1H-benzo[f]chromen-1-one], the 50% inhibitory concentration (IC50) with MCF-7 was 0.2 µg/mL (≈ 0.657 µM); in the experiment with Hep3B, 0.09 µg/mL (≈ 0.296 µM); with HepG2, 1.08 µg/mL (≈ 3.55 µM); with MDA-MB-231 it was 0.12 µg/mL (≈ 0.394 µM); with A549, 0.55 µg/mL (≈ 1.81 µM).
In the same order, the values of `O=C1C=CC(O)(c2cc(=O)c3c(O)cccc3o2)C=C1` [compound 10a, 2-(1-hydroxy-4-oxocyclohexa-2,5-dienyl)-5-hydroxy-4H-chromen-4-one] are 0.93 µg/mL (≈ 3.44 µM), 0.35 µg/mL (≈ 1.3 µM), 1.34 µg/mL (≈ 4.96 µM), 0.18 µg/mL (≈ 0.666 µM) and 1.37 µg/mL (≈ 5.07 µM).
Regarding `O=C1C=CC(O)(c2cc(=O)c3c(O)cc(O)cc3o2)C=C1` [protoapigenone], the IC50 is 1.07 µg/mL (≈ 3.74 µM) with MCF-7; 0.65 µg/mL (≈ 2.27 µM) in the experiment on Hep3B; 2.32 µg/mL (≈ 8.11 µM) in the experiment with HepG2; 0.41 µg/mL (≈ 1.43 µM) with MDA-MB-231; 3.96 µg/mL (≈ 13.8 µM) in the experiment on A549.
For the molecule `COC1(c2cc(=O)c3c(C)cccc3o2)C=CC(=O)C=C1` [10b, 1'-methoxy-5-methylprotoflavonone], the “IC50 MCF-7” value in the experiment on MCF-7 worked out at 1.55 µg/mL (≈ 5.49 µM). Moreover, the “IC50 Hep3B” value in the experiment with Hep3B came to 0.66 µg/mL (≈ 2.34 µM). The “IC50 HepG2” value in the experiment on HepG2 came to 7.64 µg/mL (≈ 27.1 µM). The “IC50 MDA-MB-231” value with MDA-MB-231 amounted to 0.54 µg/mL (≈ 1.91 µM). For the same molecule, the “IC50 A549” value with A549 was 16.36 µg/mL (≈ 58 µM).
With `COC1(c2cc(=O)c3c(ccc4ccccc43)o2)C=CC(=O)C=C1` [compound 15b], the IC50 was 0.86 µg/mL (≈ 2.7 µM) in the experiment with MCF-7; 0.35 µg/mL (≈ 1.1 µM) in the experiment with Hep3B; 3.16 µg/mL (≈ 9.93 µM) in the experiment with HepG2; 0.37 µg/mL (≈ 1.16 µM) in the experiment with MDA-MB-231; 8.2 µg/mL (≈ 25.8 µM) in the experiment with A549.

For the origin of these results see patent EP1980248B1, “Composition for treating cancer cells and synthetic method for the same” (Kaohsiung Medical University, priority 2007, dated 2008).
